Where two headings read alike, the source gives them in different places.
Assays:
[1] = pharmacokinetics of 16 ginsenosides in rat plasma after oral administration of RGS; type: in vivo
Protocol: The SD rats were randomly allocated into two groups, i.e., normal group and SA-treated group.
Blood samples were collected from the postocular vein at 0.083, 0.25, 0.5, 1, 2, 3, 4, 6, 8, 12 and 24 h after SA injection. Blood sample immediately was centrifuged at 18,000 rpm for 10 min. Plasma was withdrawn (0.15 mL) and diluted with 0.3 mL of acetonitrile and 20 µL of the IS (6 µg/mL). After 30 min, the mixture was clarified by centrifugation at 18,000 rpm for 10 min at 4 °C. The supernatant was dried under a stream of N2, and the residue was dissolved in 0.1 mL of methanol and stored at −20 °C for further analysis.
The UPLC-MS/MS system (Waters Xeve TQ, Waters, Cork, Ireland) with a column C18 (ACQUITY, 1.7 μm, 2.1 × 50 mm, Waters, Cork, Ireland) were adopted at 35 °C. Water (A) and acetonitrile (B) were used as mobile phases at a flow rate of 0.4 mL/min. The treatment of elution was performed according to following pattern: 10% B for 0–5.0 min; 10→15% B for 5.0–8.0 min; 15→25% B for 8.0–12.0 min; 25→40% for 12.0–20.0 min; 40→50% B for 20.0–25.0 min; 50→65% B for 25.0–30.0 min. With regard to mass detection, the negative mode of electrospray ionization source was adopted. The optimized parameters of multiple reactions monitoring (MRM) system including collision energy, Q1 Pre Bias, Q3 Pre Bias, collision energy and MRM transition of the 16 ginsenosides are shown in Table 1.
Based on a non-compartmental method, WinNonlin software (Phoenix, version 6.1) was employed to calculate the pharmacokinetic parameters. The statistical difference between groups was analyzed by One-Way ANOVA analysis using SPSS Version 17.0. (SPSS Inc., Chicago, IL, USA). The difference between groups was regarded significant when p < 0.05. We first normalized the pharmacokinetic data and then visualized them based on principal component analysis (PCA).

[2] = tested on: scopolamine-induced learning ability impairment; set-up: method as in PMID 24503167; settings: rats; cited from earlier work
[3] = tested on: recognition deficits induced by cyproheptadine; set-up: method as in PMID 23717153; settings: rats; cited from earlier work
[4] = SD, rat, in vivo, po, 100 mg/kg

Row | SMILES | Cmax ([1]; SD, rat, plasma, po, 100 mg/kg, model (scopolamine 1 mg/kg i.p.-treated) rats, oral RGS single dose 100 mg/kg, plasma, mean ± S.D., n = 5, read-out: C Max) [ng/g] | MRT ([1]; SD, rat, plasma, po, 100 mg/kg, model (scopolamine 1 mg/kg i.p.-treated) rats, oral RGS single dose 100 mg/kg, plasma, mean ± S.D., n = 5, read-out: MRT) [h] | half-life ([1]; SD, rat, plasma, po, 100 mg/kg, model (scopolamine 1 mg/kg i.p.-treated) rats, oral RGS single dose 100 mg/kg, plasma, mean ± S.D., n = 5, read-out: T1/2 (converted)) [h] | Tmax ([1]; SD, rat, plasma, po, 100 mg/kg, model (scopolamine 1 mg/kg i.p.-treated) rats, oral RGS single dose 100 mg/kg, plasma, mean ± S.D., n = 5, read-out: T Max) [h] | Cmax ([1]; SD, rat, plasma, po, 100 mg/kg, normal rats, oral RGS single dose 100 mg/kg, plasma, mean ± S.D., n = 5, read-out: C Max) [ng/g] | MRT ([1]; SD, rat, plasma, po, 100 mg/kg, normal rats, oral RGS single dose 100 mg/kg, plasma, mean ± S.D., n = 5, read-out: MRT) [h] | half-life ([1]; SD, rat, plasma, po, 100 mg/kg, normal rats, oral RGS single dose 100 mg/kg, plasma, mean ± S.D., n = 5, read-out: T1/2 (converted)) [h] | Tmax ([1]; SD, rat, plasma, po, 100 mg/kg, normal rats, oral RGS single dose 100 mg/kg, plasma, mean ± S.D., n = 5, read-out: T Max) [h] | AUC 0-t ([1]; model (scopolamine 1 mg/kg i.p.-treated) rats, oral RGS single dose 100 mg/kg, plasma, mean ± S.D., n = 5) [ng·h/g] | AUC 0-t ([1]; normal rats, oral RGS single dose 100 mg/kg, plasma, mean ± S.D., n = 5) [ng·h/g] | effect on scopolamine-induced learning ability impairment [2] | effect on recognition deficits induced by cyproheptadine [3] | C Max [1, 4] [ng/g] | MRT [1, 4] [h] | T1/2 [1, 4] [h] | Cmax ([1]; SD, rat, in vivo, po, 100 mg/kg, C Max) [ng/g] | MRT ([1]; SD, rat, in vivo, po, 100 mg/kg, MRT) [h] | half-life ([1]; SD, rat, in vivo, po, 100 mg/kg, T1/2) [h] | Tmax ([1]; SD, rat, in vivo, po, 100 mg/kg, T Max) [h]
1 | CC(C)=CCCC(C)(OC1OC(CO)C(O)C(O)C1O)C1CCC2(C)C1C(O)CC1C3(C)CCC(O)C(C)(C)C3C(OC3OC(CO)C(O)C(O)C3O)CC12C (stereo not shown) [Rg1] | 32.2 ± 2.1 | 16.5 ± 3.2 | 10.2 ± 1.2 | 4 ± 0.9 | 20.5 ± 2.5 | 15.6 ± 2.1 | 9.6 ± 1.5 | 4 ± 1.2 | 664.5 ± 15.2 | 568.9 ± 10.3 | improves | – | – | – | – | – | – | – | –
2 | CC(C)=CCC[C@](C)(O)[C@H]1CC[C@]2(C)[C@@H]1[C@H](O)C[C@@H]1[C@@]3(C)CC[C@H](O)C(C)(C)[C@@H]3[C@@H](O[C@@H]3O[C@H](CO)[C@@H](O)[C@H](O)[C@H]3O[C@@H]3O[C@@H](C)[C@H](O)[C@@H](O)[C@H]3O)C[C@]12C [Rg2, Ginsenoside Rg2] | – | – | – | – | – | – | – | – | – | – | – | improves | 26.3 ± 4.8 | 26.5 ± 3.6 | 18.9 ± 1.6 | 15.3 ± 5.6 | 22.3 ± 1.4 | 19.8 ± 2.5 | 1.5 ± 0.8

Reference: PMC6600263, “Neuroprotective Effects of Red Ginseng Saponins in Scopolamine-Treated Rats and Activity Screening Based on Pharmacokinetics” (Molecules, 2019)
